Laboratory results reported in the NIST ThermoML archive (doi:10.1021/je060203o).

Details: Liquid; for mass density: Vibrating tube method; for speed of sound: Pulse-echo method

CCCCCn1cc[n+](C)c1.O=S(=O)([N-]S(=O)(=O)C(F)(F)F)C(F)(F)F
Details	mass density [kg/m3]	speed of sound [m/s]
313.15 K, 25860 kPa	1409.15	–
313.15 K, 31480 kPa	1412.95	–
313.15 K, 37770 kPa	1417.13	–
313.15 K, 44170 kPa	1421.26	–
313.15 K, 50750 kPa	1425.48	–
313.15 K, 59590 kPa	1431.06	–
318.15 K, 100 kPa	1385.75	–
318.15 K, 500 kPa	–	1187.3
318.15 K, 1830 kPa	1387.09	–
318.15 K, 3500 kPa	–	1198.6
318.15 K, 7000 kPa	–	1211.5
318.15 K, 10000 kPa	–	1222.4
318.15 K, 10020 kPa	1393.29	–
318.15 K, 13500 kPa	–	1234.8
318.15 K, 14980 kPa	1396.9	–
318.15 K, 16990 kPa	–	1246.9
318.15 K, 19750 kPa	1400.31	–
318.15 K, 20000 kPa	–	1257
318.15 K, 25860 kPa	1404.59	–
318.15 K, 30000 kPa	–	1290
318.15 K, 31480 kPa	1408.43	–
318.15 K, 37770 kPa	1412.65	–
318.15 K, 40000 kPa	–	1321
318.15 K, 44170 kPa	1416.86	–
318.15 K, 50000 kPa	–	1350.2
318.15 K, 50750 kPa	1421.15	–
318.15 K, 59590 kPa	1426.81	–
318.15 K, 60000 kPa	–	1378.2
318.15 K, 70000 kPa	–	1404.9
318.15 K, 80000 kPa	–	1430.7
318.15 K, 90000 kPa	–	1455.5
318.15 K, 100000 kPa	–	1479.5
318.15 K, 112500 kPa	–	1508
318.15 K, 125000 kPa	–	1535.9
318.15 K, 137510 kPa	–	1562.6
318.15 K, 150000 kPa	–	1587.4
323.15 K, 100 kPa	1381.45	–
323.15 K, 1830 kPa	1382.69	–
323.15 K, 10020 kPa	1388.89	–
323.15 K, 14980 kPa	1392.55	–
323.15 K, 19750 kPa	1395.96	–
323.15 K, 25860 kPa	1400.22	–
323.15 K, 31480 kPa	1404.06	–
323.15 K, 37770 kPa	1408.3	–
323.15 K, 44170 kPa	1412.52	–
323.15 K, 50750 kPa	1416.77	–
323.15 K, 59590 kPa	1422.52	–
325.15 K, 100 kPa	1379.56	–
325.15 K, 1830 kPa	1380.89	–
325.15 K, 10020 kPa	1387.23	–
325.15 K, 14980 kPa	1390.89	–
325.15 K, 19750 kPa	1394.39	–
325.15 K, 25860 kPa	1398.72	–
325.15 K, 31480 kPa	1402.63	–
325.15 K, 37770 kPa	1406.92	–
325.15 K, 44170 kPa	1411.19	–
325.15 K, 50750 kPa	1415.51	–
325.15 K, 59590 kPa	1421.18	–
327.15 K, 100 kPa	1377.56	–
327.15 K, 1830 kPa	1378.86	–
327.15 K, 10020 kPa	1385.24	–
327.15 K, 14980 kPa	1388.96	–
327.15 K, 19750 kPa	1392.45	–
327.15 K, 25860 kPa	1396.84	–
327.15 K, 31480 kPa	1400.77	–
327.15 K, 37770 kPa	1405.12	–
327.15 K, 44170 kPa	1409.39	–
327.15 K, 50750 kPa	1413.81	–
327.15 K, 59590 kPa	1419.56	–
328.15 K, 500 kPa	–	1165.8
328.15 K, 3500 kPa	–	1177.4
328.15 K, 7000 kPa	–	1190.6
328.15 K, 10000 kPa	–	1201.8
328.15 K, 13500 kPa	–	1214.2
328.15 K, 16990 kPa	–	1226.6
328.15 K, 20000 kPa	–	1236.9
328.15 K, 30000 kPa	–	1270.5
328.15 K, 40000 kPa	–	1301.9
328.15 K, 50000 kPa	–	1331.7
328.15 K, 60000 kPa	–	1360.1
328.15 K, 70000 kPa	–	1387.2
328.15 K, 80000 kPa	–	1413.4
328.15 K, 90000 kPa	–	1438.4
328.15 K, 100000 kPa	–	1462.6
328.15 K, 112500 kPa	–	1491.6
328.15 K, 125000 kPa	–	1519.6
328.15 K, 137510 kPa	–	1546.6
328.15 K, 150000 kPa	–	1571.5
329.15 K, 100 kPa	1375.46	–
329.15 K, 1830 kPa	1376.78	–
329.15 K, 10020 kPa	1383.2	–
329.15 K, 14980 kPa	1386.93	–
329.15 K, 19750 kPa	1390.47	–
329.15 K, 25860 kPa	1394.89	–
329.15 K, 31480 kPa	1398.85	–
329.15 K, 37770 kPa	1403.2	–
329.15 K, 44170 kPa	1407.56	–
329.15 K, 50750 kPa	1411.94	–
329.15 K, 59590 kPa	1417.73	–
331.15 K, 100 kPa	1373.32	–
331.15 K, 1830 kPa	1374.64	–
331.15 K, 10020 kPa	1381.17	–
331.15 K, 14980 kPa	1384.96	–
331.15 K, 19750 kPa	1388.53	–
331.15 K, 25860 kPa	1392.98	–
331.15 K, 31480 kPa	1396.98	–
331.15 K, 37770 kPa	1401.34	–
331.15 K, 44170 kPa	1405.67	–
331.15 K, 50750 kPa	1410.08	–
331.15 K, 59590 kPa	1415.87	–
333.15 K, 100 kPa	1371	–
333.15 K, 1830 kPa	1372.46	–
333.15 K, 10020 kPa	1379.05	–
333.15 K, 14980 kPa	1382.89	–
333.15 K, 19750 kPa	1386.48	–
333.15 K, 25860 kPa	1390.95	–
333.15 K, 31480 kPa	1395.01	–
333.15 K, 37770 kPa	1399.42	–
333.15 K, 44170 kPa	1403.81	–
333.15 K, 50750 kPa	1408.2	–
333.15 K, 59590 kPa	1414.01	–
338.15 K, 500 kPa	–	1144.8
338.15 K, 3500 kPa	–	1156.5
338.15 K, 7000 kPa	–	1170
338.15 K, 10000 kPa	–	1181.4
338.15 K, 13500 kPa	–	1194.3
338.15 K, 16990 kPa	–	1206.7
338.15 K, 20000 kPa	–	1217.2
338.15 K, 30000 kPa	–	1251.3
338.15 K, 40000 kPa	–	1283.3
338.15 K, 50000 kPa	–	1313.6
338.15 K, 60000 kPa	–	1342.4
338.15 K, 70000 kPa	–	1369.8
338.15 K, 80000 kPa	–	1396.3
338.15 K, 90000 kPa	–	1421.6
338.15 K, 100000 kPa	–	1446.3
338.15 K, 112500 kPa	–	1475.3
338.15 K, 125000 kPa	–	1503.7
338.15 K, 137510 kPa	–	1530.9
338.15 K, 150000 kPa	–	1556.2
